Test results as given in the METLIN SMRT retention time set (Domingo-Almenara et al. 2019).

Experiment: gradient 5% acetonitrile 3 min, to 50% in 2 min, to 85% in 15 min, held 3 min, 100 µL/min
Settings: column: Zorbax Extend-C18 2.1 x 50 mm; eluents: water / acetonitrile, 0.1% formic acid
How it was run: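 Standards, all pure, were combined into mixtures of ~100 molecules and run at 100 μL/min on a Zorbax Extend-C18 column (2.1 × 50 mm, 1.8 μm) with water and acetonitrile, each containing 0.1% formic acid. A coupled quadrupole time-of-flight mass spectrometer operated in positive and negative ionization mode. Retention time values come from computationally picked adduct peaks, each inspected manually.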

| SMILES | RP-LC retention time [s] |
| --- | --- |
| COc1ccc(C(=O)N2CCN(c3cc(C)n4cnnc4n3)CC2)c(OC)c1 | 999 |
| Cc1noc(-c2cccc(OC3CN(C(=O)NC(C)C)C3)c2)n1 | 760 |
| CC(C)(C)n1nnnc1C1CC2(CCOCC2)C(=O)N1CCc1nc2ccccc2[nH]1 (stereo not drawn) | 604 |
| COc1ccc2c(c1)C1(CCN(C(=O)Cc3ccc(Cl)cc3)C1)C(=O)N2C (stereo not drawn) | 873 |
| O=C(Cc1cccc(F)c1)NC1(c2nc(-c3ccsc3)no2)CCCCC1 | 589 |
| C[C@H]([C@H](C)N1CC(=O)NC(=O)C1)N1CC(=O)NC(=O)C1 | 610 |
| C=CCN(CC=C)C(=O)Cn1c(C)c(Cc2ccccc2)c(=O)n2nc(-c3ccccc3)nc12 | 1040 |
| CCNc1cc(C)nc(N2CCN(C(=O)CC)CC2)n1 | 567 |
| CCOc1ncccc1CNC(=O)CC1CCCC1 | 812 |
| O=C(Nc1cnn(-c2ncncc2N2CCCCC2)c1)c1ccc2c(c1)OCO2 | 702 |
| CCc1cc(N2CCN(C(=O)c3ccc(F)cc3)CC2)nc2nncn12 | 548 |
| CCN(CC)CCNc1ccc2nc(C)n3c4ccc(OC)cc4c(=O)c1c23 | 610 |
| CC(C)n1c(CCNC(=O)c2ccc(F)cc2)nc2cccnc21 | 656 |
| Cc1ccnc(N2CCCC(C(=O)NCC3CCN(Cc4ccccc4F)CC3)C2)n1 (stereo not drawn) | 608 |
| Cn1cc(-c2cc3n(n2)CCCN3C(=O)CCC(=O)NCCCN2CCCCC2)c2ccccc21 | 623 |
| CCn1cnc(S(=O)(=O)N2CCC(C(=O)NCCc3ccc(OC)c(OC)c3)CC2)c1 | 661 |
| CCCNC(=O)C1CCCN(c2nc3ncn(CC(=O)NC4CCc5ccccc54)c(=O)c3s2)C1 (stereo not drawn) | 709 |
| COCc1noc([C@@H]2CN(C(=O)C3CC=CCC3)C[C@H]2C(N)=O)n1 (stereo partly drawn) | 610 |
| Cc1nc(-c2ccncc2)nc2c1CCC(=O)N2C1CCCCC1 | 851 |
| Cc1cc(=O)n(CC#N)c(N2CCCCC2)n1 | 655 |
| COc1ccc2c(c1)C1(CCN(S(=O)(=O)c3ccc(OC)c(OC)c3)C1)C(=O)N2 (stereo not drawn) | 757 |

| SMILES | RP-LC retention time [s] |
| --- | --- |
| COc1nn(C)cc1C(=O)N1CCC(C(=O)NCc2cccs2)CC1 | 613 |
| O=C(NCCCN1CCCC1=O)C1CCCN(c2ncnc3c2nc2n3CCCCC2)C1 (stereo not drawn) | 605 |
| COC(=O)c1ccc(CSc2nnc(NC(=O)c3snnc3C)s2)o1 | 743 |
| CC(C)C(=O)c1cn(CC(=O)COc2ccc(Oc3ccccc3)cc2)c2ccc(C(=O)O)cc12 | 1140 |
| COCCCNC(=O)CCCn1c(=O)c2cccn2c2ccccc21 | 682 |
| O=c1oc2cc(O)ccc2s1 | 771 |
| Fc1cc(CN2CCC(Cc3nnc(C4CCOCC4)o3)C2)ccc1Cl (stereo not drawn) | 603 |
| CN1CCCc2cc(C(=O)NCc3cccc(F)c3)sc21 | 915 |
| CCc1ccccc1NC(=O)Cn1ncc2c(c1=O)N(C1CC1)C(=O)CS2 | 718 |
| COc1ccc(CN(Cc2ccccc2)Cc2cc(=O)n3cc(C)ccc3n2)cc1OC | 616 |
| CCn1ccc2sc(C)c(C(=O)NCc3cc(OC)ccc3OC)c2c1=O | 716 |
| CCN(CC)CCNC(=O)C1(O)c2cc(Br)ccc2NC(=O)N1c1cccc(OC)c1 (stereo not drawn) | 590 |
| O=C1CCC2(O)[C@@H]3Cc4ccc(O)c5c4[C@]2(CCN3Cc2ccoc2)C1O5 (stereo partly drawn) | 609 |
| O=C(Nc1ccccc1Cl)N1CCc2nc[nH]c2C1 | 570 |
| COc1ccc(CNC(=O)N2CCC(OC3CCN(S(C)(=O)=O)CC3)CC2)cc1 | 699 |
| CNC(=O)c1cc(Cc2ccc3nc(Nc4cccc(C(F)(F)F)c4)[nH]c3c2)ccn1 | 680 |
| COC(=O)c1cnc(N2CCN(Cc3ccccc3)CC2)c2ccccc12 | 682 |
| O=C(NCc1ccncc1)C1CC(=O)N(CCc2c[nH]c3ccc(F)cc23)C1 (stereo not drawn) | 588 |
| CS(=O)(=O)N1CCCc2ccc(NS(=O)(=O)CCN3C(=O)CCCC3=O)cc21 | 622 |
| CCn1c(=O)n(Cc2ccccc2C(F)(F)F)c2cncnc21 | 834 |

Other lines, results leading:

| RP-LC retention time [s] | SMILES |
| --- | --- |
| 792 | Cn1ncc2c3ccccc3n(CC(=O)NCc3ccc4c(c3)OCO4)c2c1=O |
| 583 | COc1ccc(C2=NC3(CCN(C)CC3)NC(c3cccc(OC)c3O)C2)cc1 (stereo not drawn) |
| 653 | CN(C)C(CNC(=O)c1cc(-c2ccccc2)on1)c1ccco1 (stereo not drawn) |
| 848 | Cc1cc(C)n(-c2ccc(C(=O)NCc3ccc(C)o3)cn2)n1 |
| 921 | COc1ccc(-c2nnc(COc3ccc(NC(=O)c4ccc(C)s4)cc3)o2)cc1 |
| 626 | CCS(=O)(=O)Nc1ccc2nc(N3CCN(c4ccc(OC)cc4)CC3)cc(C(=O)O)c2c1 |
| 955 | Cn1nc(-c2nnc(-c3ccccc3)o2)c2c1CCN(S(=O)(=O)c1ccc(F)cc1F)C2 |
| 931 | Cc1ccc(C(=O)N2CCC(COc3ccc(C(=O)NC(C)C)cc3)CC2)c(C)c1 |
| 715 | Cc1ccc(NC(=O)N2CC(n3cnnc3-c3ccccc3)C2)cc1C |
| 1210 | Cc1ccc(C2C=CC(C#N)=CN2Cc2ccccc2)cc1 (stereo not drawn) |
| 633 | Cc1ccn2c(NC(=O)c3cccs3)c(-c3ccccc3)nc2c1 |
| 1040 | O=C1CC(c2nc(-c3ccc(Cl)cc3)no2)CN1c1ccc2c(c1)OCCO2 (stereo not drawn) |
| 714 | O=S(=O)(c1ccc2c(c1)CCC2)N1CCCn2nc(-c3cccnc3)cc2C1 |
| 810 | CC(C)c1ccc(-n2nc(N3CCN(C(=O)C4CC4)CC3)ccc2=O)cc1 |
| 706 | Cc1ccc(NC(=O)C2CCN(S(=O)(=O)c3cn(C)cn3)CC2)c(C)c1 |
| 942 | O=C(Cc1csc2nc(-c3cccc(Cl)c3)cn12)Nc1ccc(F)cc1F |
| 693 | COc1ccc(OCc2noc(CNS(=O)(=O)CCN3C(=O)CCCC3=O)n2)cc1 |
| 811 | CCOc1ccc(NC(=O)N(C)Cc2nc3ccccc3c(=O)n2CCOC)cc1 |
| 846 | CCCc1ccc(S(=O)(=O)N2CCC3(CC2)NCCN=C3NCc2ccc(C)cc2)cc1 |
| 953 | O=C(NCc1ccccc1)c1nnc(-c2ccc(S(=O)(=O)N3CCCCC3)cc2)o1 |
| 742 | CC(=O)N(C)c1ccc(NS(=O)(=O)c2ccc(C)cc2)c([N+](=O)[O-])c1 |
| 720 | O=C(CN1CCC(c2nc(-c3ccc(F)cc3)no2)CC1)NCc1ccc2c(c1)OCO2 |
| 1050 | O=c1c2ccccc2c(-c2nc(-c3cccnc3)no2)cn1-c1ccc(F)cc1 |
| 1220 | CCC1Cn2c(C(=O)NCCc3c[nH]c4ccccc34)cc3c(Cl)ccc(c32)O1 (stereo not drawn) |

| RP-LC retention time [s] | SMILES |
| --- | --- |
| 696 | Cc1cc(=O)n2c(-c3cccc(NC(=O)Cc4cccs4)c3)csc2n1 |
| 1050 | Cc1ccc(-c2nnc(Cc3nc(-c4ccccc4)no3)o2)cc1F |
| 574 | COc1ccc(-c2nc(NCc3cccnc3)c3ccccc3n2)cc1 |
| 875 | O=C(CSc1nnc2ccc3ccccc3n12)c1ccc(Cl)cc1 |
| 913 | O=c1ccn(-c2ccc(Cl)cc2)nc1-c1nc(-c2ccc3c(c2)OCO3)no1 |
| 740 | COCCN1CCn2cc(S(=O)(=O)Nc3ccc(C)cc3F)cc2C1=O |
| 548 | O=S(=O)(c1cccs1)N1CCN(c2ccc(Nc3cccnc3)nn2)CC1 |
| 735 | O=C1CCCc2cc(S(=O)(=O)N3CCC(C(=O)NCCc4ccccc4)CC3)ccc2N1 |
| 905 | Cc1cc(-c2nnc(-c3ccc(F)cc3)o2)c(C)n1CC(=O)NCc1cccs1 |
| 1380 | CCOC(=O)c1c(C)oc2nc(C)nc(NCCc3ccc(Cl)cc3)c12 |
| 880 | Cc1cccc(NC(=O)Cn2c(=O)n(-c3ccc(F)cc3)c3ncccc32)c1C |
| 1190 | Cc1ccc(-c2nnc(Cc3nc(-c4ccc(Cl)cc4)no3)o2)cc1F |
| 781 | Cc1ccc(-c2ccc(=O)n(Cc3noc(C(=O)NCCc4ccc(S(N)(=O)=O)cc4)n3)n2)cc1 |
| 882 | O=C(c1nc2ccccc2s1)N1CCN(Cc2nc(-c3ccc(F)cc3)cs2)CC1 |
| 949 | CCc1ccc(OCc2nc(CCN(C)C(=O)Nc3ccc(OC)cc3)no2)cc1 |
| 1000 | Cc1noc(C)c1-c1ccc(S(=O)(=O)Nc2ccc(Cl)cc2)cc1 |
| 1070 | COc1ccc(-c2nc(Cc3noc(-c4ccc(C#N)cc4)n3)c(C)o2)cc1 |
| 1070 | Cc1sc(C)c(S(=O)(=O)Nc2ccc3c(c2)OCCO3)c1-c1cc(C(F)(F)F)on1 |
| 858 | COc1ccc(S(=O)(=O)NCc2ccc3c(c2)CCN3C(=O)CC(C)C)cc1OC |
| 866 | Cc1cc2cc(CN3C(=O)c4ccccc4C3=O)ccc2[nH]1 |
| 980 | Cc1noc(-c2ccc(NC(=O)c3cnn(-c4ccccc4)n3)cc2)n1 |
| 1090 | Cc1ccc(Cn2c(=O)c(N3CCCC(C(=O)NCCc4ccco4)C3)nc3ccccc32)cc1 (stereo not drawn) |
| 923 | Cc1cc(F)ccc1NC(=O)c1n[nH]nc1Nc1ccc(F)cc1 |
